Data reported in US20060069132A1, “Azolecarboxamide herbicides” (priority 2004, published 2006).

Assays:
common ragweed = assay: Test C pre-/postemergence herbicide test; format: in vivo, Ambrosia elatior; design: key to Plant response rating, Ragweed: 0 = no effect, 100 = complete control; details: for Ragweed plant response rating: 500 g ai/ha
Method in brief: (§1)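 Visual injury scores run from 0 (no effect) to 100 (complete control), assessed relative to untreated controls 12 to 14 days after treatment in the greenhouse. Chemicals were formulated in a non-phytotoxic solvent mixture with surfactant and applied to soil after planting or to emerged plants at the 1- to 4-leaf stage.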

barnyardgrass [1] = assay: Test A pre-/postemergence herbicide test; format: in vivo, Echinochloa crus-galli; details: for Plant response rating, Barnyardgrass: Postemergence; for Barnyardgrass plant response rating: Preemergence
Method in brief: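 Pre: seeded sandy loam, directed soil spray, compound in non-phytotoxic solvent + surfactant. Post: 1–2-leaf plants (2–10 cm), sprayed to runoff. Greenhouse ~10 d; visual injury vs untreated, 0–100 scale.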

eastern black nightshade = assay: Test C pre-/postemergence herbicide test; format: in vivo, Solanum ptycanthum; details: for Plant response rating, Nightshade: visual, 12 to 14 days
Method in brief: as §1

cocklebur = assay: Test C pre-/postemergence herbicide test; format: in vivo, Xanthium strumarium; details: for Cocklebur plant response rating: 500 g ai/ha
Method in brief: as §1

corn = assay: Test C pre-/postemergence herbicide test; format: in vivo, Zea mays; details: for Corn plant response rating: 500 g ai/ha
Method in brief: as §1

[2] = tested on: common (oilseed) sunflower; assay: Test C pre-/postemergence herbicide test; format: in vivo, Helianthus annuus; details: for Plant response rating, Sunflower: visual, 12 to 14 days
Method in brief: as §1

barnyardgrass [3] = assay: Test C flooded paddy test; format: in vivo, Echinochloa crus-galli; details: for Plant response rating, Barnyardgrass: visual rating after 12 to 14 days
Method in brief: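 Ratings (0 = no effect, 100 = complete control) come from visual comparison with untreated plants after 12 to 14 days in the greenhouse. Treatment was postemergence at the 1- to 4-leaf stage (2–18 cm), or at the 2-leaf stage for the flooded paddy barnyardgrass.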

large crabgrass = assay: Test C pre-/postemergence herbicide test; format: in vivo, Digitaria sanguinalis; details: for Crabgrass, Large plant response rating: 500 g ai/ha
Method in brief: as §1

[4] = tested on: smallflower umbrella sedge; assay: Test C flooded paddy test; format: in vivo, Cyperus difformis; details: for Plant response rating, Sedge, Umbrella: visual rating after 12 to 14 days
pigweed = assay: Test C pre-/postemergence herbicide test; format: in vivo, Amaranthus retroflexus; details: for Pigweed plant response rating: 500 g ai/ha
Method in brief: as §1

ducksalad = assay: Test C flooded paddy test; format: in vivo, Heteranthera limosa; details: for Plant response rating, Ducksalad: visual rating after 12 to 14 days
velvetleaf = assay: Test C pre-/postemergence herbicide test; format: in vivo, Abutilon theophrasti; details: for Velvetleaf plant response rating: 500 g ai/ha
Method in brief: as §1

lambsquarters = assay: Test C pre-/postemergence herbicide test; format: in vivo, Chenopodium album; details: for Lambsquarters plant response rating: 500 g ai/ha
Method in brief: as §1

[5] = 125 g ai/ha, scale 0 (no effect) to 100 (complete control), visual, 12 to 14 days, preemergence
[6] = 250 g ai/ha, scale 0 to 100 (0 no effect, 100 complete control), visual, 12 to 14 days, preemergence
[7] = Postemergence, 250 g ai/ha, scale 0 to 100, 0 no effect, 100 complete control
[8] = Preemergence, scale 0 to 100, 0 no effect, 100 complete control
[9] = postemergence, 62 g ai/ha, scale 0 to 100
[10] = 2000 g ai/ha, 0 to 100 scale, 0 no effect, 100 complete control
[11] = 125 g ai/ha, scale 0 (no effect) to 100 (complete control), preemergence
[12] = 250 g ai/ha, scale 0 to 100 (0 no effect, 100 complete control), preemergence
[13] = Preemergence, 500 g ai/ha, scale 0 to 100, 0 no effect, 100 complete control
[14] = Postemergence, 125 g ai/ha, scale 0 to 100, 0 no effect, 100 complete control
[15] = 62 g ai/ha, scale 0 to 100 (0 no effect, 100 complete control)
[16] = 125 g ai/ha, scale of 0 to 100, 0 is no effect, 100 is complete control
[17] = 250 g ai/ha, scale 0 to 100 (0 no effect, 100 complete control)
[18] = 500 g ai/ha, scale 0 to 100 (0 no effect, 100 complete control)

Compound: C#CCNC(=O)c1cccc(NC(=O)c2cc(C(C)(C)C)nn2CC)c1 [Compound 47]
- Plant response rating (0 = no effect, 100 = complete control), Ragweed (common ragweed; 62 g ai/ha, preemergence): 80
- Plant response rating, Ragweed (common ragweed; [5]): 80
- Plant response rating, Ragweed (common ragweed; [6]): 100
- Ragweed plant response rating (common ragweed; Postemergence, scale 0 to 100): 90
- Plant response rating, Ragweed (common ragweed; [7]): 80
- Ragweed plant response rating (common ragweed; [8]): 100
- Plant response rating, Ragweed (common ragweed; [9]): 70
- Plant response rating, Barnyardgrass (barnyardgrass [1]; 500 g ai/ha, 0 to 100 scale, 0 no effect, 100 complete control): 90
- Plant response rating, Barnyardgrass (barnyardgrass [1]; [10]): 100
- Barnyardgrass plant response rating (barnyardgrass [1]; 500 g ai/ha, visual rating, 0 to 100 scale (0 no effect, 100 complete control)): 90
- Barnyardgrass plant response rating (barnyardgrass [1]; [10]): 95
- Plant response rating (0 = no effect, 100 = complete control), Nightshade (eastern black nightshade; 62 g ai/ha, preemergence): 100
- Plant response rating, Nightshade (eastern black nightshade; [11]): 100
- Plant response rating, Nightshade (eastern black nightshade; [12]): 100
- Nightshade plant response rating (eastern black nightshade; [13]): 100
- Plant response rating (0 = no effect, 100 = complete control), Cocklebur (cocklebur; 62 g ai/ha, preemergence): 0
- Plant response rating, Cocklebur (cocklebur; [5]): 0
- Plant response rating, Cocklebur (cocklebur; [6]): 0
- Cocklebur plant response rating (cocklebur; Postemergence, scale 0 to 100): 90
- Plant response rating, Cocklebur (cocklebur; [14]): 70
- Plant response rating, Cocklebur (cocklebur; [7]): 70
- Cocklebur plant response rating (cocklebur; [8]): 100
- Plant response rating, Cocklebur (cocklebur; [9]): 50
- Plant response rating (0 = no effect, 100 = complete control), Corn (corn; 62 g ai/ha, preemergence): 0
- Plant response rating, Corn (corn; [5]): 0
- Plant response rating, Corn (corn; [6]): 0
- Corn plant response rating (corn; Postemergence, scale 0 to 100): 80
- Plant response rating, Corn (corn; [14]): 70
- Plant response rating, Corn (corn; [7]): 80
- Corn plant response rating (corn; [8]): 10
- Plant response rating, Corn (corn; [9]): 70
- Plant response rating (0 = no effect, 100 = complete control), Sunflower ([2]; 62 g ai/ha, preemergence): 0
- Plant response rating, Sunflower [2, 11]: 0
- Plant response rating, Sunflower [2, 12]: 10
- Sunflower plant response rating [2, 13]: 40
- Barnyardgrass plant response rating (barnyardgrass [3]; [15]): 0
- Barnyardgrass plant response rating (barnyardgrass [3]; [16]): 0
- Plant response rating, Barnyardgrass (barnyardgrass [3]; [17]): 40
- Plant response rating, Barnyardgrass (barnyardgrass [3]; [18]): 40
- Plant response rating (0 = no effect, 100 = complete control), Crabgrass, Large (large crabgrass; 62 g ai/ha, preemergence): 100
- Plant response rating, Crabgrass, Large (large crabgrass; [5]): 100
- Plant response rating, Crabgrass, Large (large crabgrass; [6]): 100
- Crabgrass, Large plant response rating (large crabgrass; Postemergence, scale 0 to 100): 90
- Crabgrass, Large plant response rating (large crabgrass; [8]): 100
- Plant response rating, Crabgrass, Large (large crabgrass; [9]): 90
- Sedge, Umbrella plant response rating [4, 15]: 30
- Sedge, Umbrella plant response rating [4, 16]: 70
- Plant response rating, Sedge, Umbrella [4, 17]: 80
- Plant response rating, Sedge, Umbrella [4, 18]: 80
- Plant response rating (0 = no effect, 100 = complete control), Pigweed (pigweed; 62 g ai/ha, preemergence): 100
- Plant response rating, Pigweed (pigweed; [5]): 100
- Plant response rating, Pigweed (pigweed; [6]): 100
- Pigweed plant response rating (pigweed; Postemergence, scale 0 to 100): 100
- Plant response rating, Pigweed (pigweed; [7]): 100
- Pigweed plant response rating (pigweed; [8]): 100
- Plant response rating, Pigweed (pigweed; [9]): 100
- Ducksalad plant response rating (ducksalad; [15]): 0
- Ducksalad plant response rating (ducksalad; [16]): 70
- Plant response rating, Ducksalad (ducksalad; [17]): 80
- Plant response rating, Ducksalad (ducksalad; [18]): 80
- Plant response rating (0 = no effect, 100 = complete control), Velvetleaf (velvetleaf; 62 g ai/ha, preemergence): 40
- Plant response rating, Velvetleaf (velvetleaf; [5]): 40
- Plant response rating, Velvetleaf (velvetleaf; [6]): 100
- Velvetleaf plant response rating (velvetleaf; Postemergence, scale 0 to 100): 90
- Plant response rating, Velvetleaf (velvetleaf; [7]): 80
- Velvetleaf plant response rating (velvetleaf; [8]): 100
- Plant response rating, Velvetleaf (velvetleaf; [9]): 80
- Plant response rating (0 = no effect, 100 = complete control), Lambsquarters (lambsquarters; 62 g ai/ha, preemergence): 100
- Plant response rating, Lambsquarters (lambsquarters; [5]): 100
- Plant response rating, Lambsquarters (lambsquarters; [6]): 100
- Lambsquarters plant response rating (lambsquarters; Postemergence, scale 0 to 100): 100
- Plant response rating, Lambsquarters (lambsquarters; [7]): 100
- Lambsquarters plant response rating (lambsquarters; [8]): 100
- Plant response rating, Lambsquarters (lambsquarters; [9]): 90
